Source: article PMC11568214, “The impact of 9-azaglycophymine and phenylguanidine derivatives on the proliferation of various breast cancer cell lines in vitro and in vivo” (Scientific Reports, 2024)
Where two headings read alike, the source gives them in different places.

Columns and labels:
[1] = test system: 4T1; assay: Crystal violet (CV) cell viability assay, IC50 determination; assay type: cell-based; conditions: Mus musculus, 72 h treatment, mean ± SD
Procedure: (§1) For initial testing of the cytotoxic effect of the available glycophymine compounds (Table S2), cells were treated with compound in three concentrations: 1, 10 and 50 µM. Cells were seeded in 96-well plates and allowed to adhere overnight. Then they were treated for 72 h under standard culture conditions. […] For IC50 determination, the compounds were tested at seven concentrations (0.78, 1.56, 3.13, 6.25, 12.5, 25 and 50 µM). Subsequently, the cell viability was determined by using the crystal violet (CV) assay. Moreover, the selected compounds were tested against the mouse breast cancer cell line 4T1 (TNBC) as well. The compounds were prepared initially to obtain a stock solution of 20 mM in DMSO. Later, the working solutions were prepared by mixing the required amount of DMSO stock with the optimal medium for each cell line. The DMSO concentration in the final solution was always maintained lower than 0.5% to avoid any DMSO-derived side effects.
(§2) For CV assays, after 72 h treatment, the treatment medium was discarded from the 96-well plates, and the cells were washed using 50 µL of PBS. Cells were fixed by adding 50 µL of 4% (v/v) paraformaldehyde (PFA) in PBS for 15 min at room temperature (RT). Afterwards, PFA was discarded, and the plates were dried for 15 min at RT. 50 µL of CV working solution (0.1% w/v CV in PBS) were added to the wells, followed by 15 min incubation at RT. Subsequently, the CV solution was discarded, and the plates were washed using aqua bidest. (ddH2O) to remove any remaining CV solution. The plates were left to dry overnight at RT, and then 50 µL of 33% (v/v) acetic acid in ddH2O were added to each well. Finally, the absorbance was measured at 570 nm by using a SpectraMax M5 plate reader (Molecular Devices, California, USA) and at 670 nm as background wavelength. […] Additionally, gefitinib, an approved EGFR inhibitor of the quinazoline family, was tested as anti-proliferative positive control. The data represent the mean ± standard deviation derived from three independent biological replicates. Dose–response curves were generated by four-parametric non-linear regression analysis using the GraphPad Prism software (version: 10.1, San Diego, CA, USA). Based on that, IC50 values and standard deviations were calculated for each replicate individually.

[2] = test system: BT-474; assay: as above; assay type: cell-based; conditions: Homo sapiens, 72 h treatment, mean ± SD
Procedure: as §1, §2

[3] = test system: HCC1937; assay: as above; assay type: cell-based; conditions: Homo sapiens, 72 h treatment, mean ± SD
Procedure: as §1, §2

[4] = test system: MCF-7; assay: as above; assay type: cell-based; conditions: Homo sapiens, MCF7, 72 h treatment, mean ± SD
Procedure: as §1, §2

[5] = test system: MCF-7, MDA-MB-468, BT-474 and HCC1937 breast cancer cells; assay: Fast screening / CV cell viability, breast cancer cell line panel; assay type: cell-based, human; parameters: reduction of cell viability: concentration or dose not given beside the values
Procedure: as §1, §2

[6] = test system: 4T1; assay: ROS production, DHR staining, flow cytometry; assay type: cell-based, mouse; parameters: key: ↑: induction; ↓: inhibition; ↔: no effect; conditions: 4T1, IC50 for 72 h
Procedure: The cells were stained with CFSE (1 µM) in PBS containing 0.1% (v/v) FCS for 10 min. Afterwards, cells were washed with PBS, and then seeded with growth medium in 6-well plates. The plates were incubated for 24 h under standard culture conditions. […] Subsequently, the cells were detached using 0.5 mL of 0.05% (v/v) Trypsin–EDTA for 3 min at 37 °C. Then trypsin was deactivated by the addition of FCS-containing growth medium. The cell suspensions were collected, centrifuged for 3 min at 800 rpm, and the cell pellets were resuspended in fresh PBS. Finally, the samples were analyzed by using flow cytometry. For ROS production analyses, the procedure was performed exactly as described above for the cell division experiments, except that the CFSE staining solution was replaced by DHR staining solution resulting in 1 µM of DHR in PBS containing 0.1% (v/v) FCS[34],[35].

[7] = test system: BT-474; assay: NO production, DAF-FM staining, flow cytometry; assay type: cell-based, human; parameters: key: ↑: induction; ↓: inhibition; ↔: no effect; conditions: BT-474, IC50 for 72 h
Procedure: (§3) Afterwards, the medium was discarded and the cells were stained with DAF-FM (5 µM) in RPMI1640 with 10% (v/v) FCS for 1 h at 37 °C. The stain was completed by additional incubation for 15 min with serum-free medium. The cells were then detached, re-suspended in PBS and analyzed by flow cytometry.

[8] = test system: HCC1937; assay: NO production, DAF-FM staining, flow cytometry; assay type: cell-based, human; parameters: key: ↑: induction; ↓: inhibition; ↔: no effect; conditions: HCC1937, IC50 for 72 h
Procedure: as §3

[9] = test system: MCF-7; assay: NO production, DAF-FM staining, flow cytometry; assay type: cell-based, human; parameters: key: ↑: induction; ↓: inhibition; ↔: no effect; conditions: MCF-7, IC50 for 72 h
Procedure: as §3

[10] = test system: MDA-MB-468; assay: NO production, DAF-FM staining, flow cytometry; assay type: cell-based, human; parameters: key: ↑: induction; ↓: inhibition; ↔: no effect; conditions: MDA-MB-468, IC50 for 72 h
Procedure: as §3

[11] = test system: 4T1; assay: NO production, DAF-FM staining, flow cytometry; assay type: cell-based, mouse; parameters: key: ↑: induction; ↓: inhibition; ↔: no effect; conditions: 4T1, IC50 for 72 h
Procedure: as §3

[12] = Monitoring of systemic toxicity in the 4T1 in vivo study (body mass, behavior, fur, food intake); parameters: species or system BALB/c mice; conditions: 5 and 20 mg/kg i.p.
Procedure: On day 6, the mice were assigned to the study groups using a stratified randomization approach, ensuring that the mean tumor volumes were as similar as possible across all groups. The control group was treated with 400 µL of vehicle solution, the low dose compound 19 group with 5 mg/kg in 400 µL of vehicle, and the high dose group with […] in 400 µL of vehicle. The vehicle was 4% (v/v) DMSO in PBS, and the administration route was intraperitoneal (i.p.). The animals were treated daily on days 6–10 (starting from the day when tumors became palpable), 13–17 and day 20. Animals were visually examined daily, and urine samples were collected on the first and last day of treatment and analyzed by Multistix urine test stripes (Siemens Healthineers, Erlangen, Germany). On day 21 of the experiment, the mice were sacrificed using cervical dislocation. Following the sacrifice, the tumor diameters were measured using a caliper. The tumor volume (V) was then calculated using the formula V = L*W^2*0.52[36], where L represents the longest diameter and W the shortest diameter of the tumor.

Molecule O=c1[nH]c(Nc2ccc([N+](=O)[O-])cc2)nc2ccccc12 [Compound 19, 4′-nitro-9-aza-glycophymine] has an IC50 [1] of 12.5 ± 3.7 µM, an IC50 [2] of 4 ± 0.2 µM and an IC50 [3] of 4.3 ± 0.1 µM. For the same molecule, the IC50 [4] was 5.5 ± 0.6 µM, the IC50 ([5]; 72 h, CV assay, across cell lines, read-out: IC50 values against the breast cancer cell lines) was 4 to 6 µM and the “concentration below which active in cytotoxicity screening” value ([5]; 72 h, initial screening) was “below 10 µM”. The “anti-proliferative / cytotoxic effect” value ([5]; 72 h, screening at 1, 10 and 50 µM) was “significantly reduced cell proliferation”, the IC50 ([5]; Homo sapiens, 72 h, CV assay, across cell lines, read-out: IC50 values against the breast cancer cell lines) was ~4 µM and the IC50 ([5]; Homo sapiens, 72 h, read-out: IC50 values (National Cancer Institute guideline criterion)) was < 30 mg/L. The “reduction of cell viability” value ([5]; after 72 h of treatment, initial screening) was ≥ 50%, the ROS [6] was “↔” and the NO [7] was “↑”. For the same molecule, the NO [8] was “↑”, the NO [9] was “↑” and the NO [10] was “↔”. For the same molecule, the NO [11] was “↑” and the “acute systemic toxicity (body mass, behavioral changes, fur color and loss, food intake)” value [12] was “absence of acute systemic toxicity”.
